According to patent US20260297679A1, “ASSAYS FOR MONITORING INHIBITION OF RNA HELICASE DHX9” (ACCENT THERAPEUTICS, INC., priority 2023, published 2026):

Assays:
[1] = tested on: DHX9; assay: qPCR (SYBR Green) of circular and linear RNAs in HCT116 cells after DHX9 inhibition; assay type: cell-based; conditions: 72 hours, FIG. 1
Procedure: This experiment was conducted to evaluate circular and linear formats of different mRNA in HCT116 cells after treatment with DHX9 inhibitors by Quantitative Polymerase Chain Reaction (qPCR).
HCT116 cells were obtained from ATCC (CCL-247) and were grown and assayed in McCoy's 5a growth media supplemented with 10% FBS.
The cells were plated at pre-determined cell densities in 384-well cell culture plates and incubated overnight in 37° C. at 5% CO2. In a separate plate, reference and test compounds were prepared in DMSO stock solution and serially diluted 3-fold for 10 points. Compound 7 (0.1% final DMSO concentration) was transferred to the cell plate in designated wells, and incubated 37° C. at 5% CO2 for 72 hours.
RNA was extracted from the cells using the SYBR Green Fast Advanced Cell-to-CT kit according to manufacturer's (Invitrogen) protocol, and cDNA was reverse transcribed using the High Capacity RNA-to-cDNA Kit according to the manufacturer's (Invitrogen) protocol. Using RT^2 SYBR Green ROX qPCR Mastermix (Invitrogen) and thermal cycler conditions for the QuantStudio Thermocycler, qPCR was carried out using the below custom primer sequences obtained at Integrated DNA Technologies (IDT):
Data analysis was performed by using the QuantStudio Thermocycler software to determine threshold Ct values. ΔCt for circRNA or linRNA is calculated by normalizing the target gene Ct to the GAPDH housekeeping gene Ct for each sample. The inhibition activity is calculated by the following formula, whereas: […]
ΔCts: Mean of Ct(target gene)−Mean of Ct(GAPDH) for each sample
ΔCtc: Mean of Ct(target gene)−Mean of Ct(GAPDH) for DMSO control.

[2] = tested on: human PBMCs; assay: proliferation of human PBMCs (Cell-Titer Glo 2.0); assay type: cell-based; conditions: Compound 1 0.01 μM to 10 μM, 10 days; FIG. 8B
Procedure: Next, the proliferation of PMBCs was examined following treatment with DHX9 inhibitor using the following assay.
Human PBMCs were thawed from a frozen cryotube in a 37° C. water bath and transferred to a flask with medium X-Vivo 15 supplemented with 5% Fetal Bovine Serum (FBS), 1% PenStrep, and 1% Glutamax. Flasks were incubated at 37 C for 30 minutes. PBMCs were harvested from flask and counted. PBMCs were diluted in medium and added to 96 well plates at 100,000 PBMCs per well. A stimulus mixture containing IL-15 at 1 ng/well, IL-21 at 5 ng/well, and CD40L at 5 ng/well was added to each well. Test compounds were prepared in DMSO stock solution and serially diluted. Compound (0.1% final DMSO concentration) was added to each well. DMSO was used as a negative control (high control, HC) and staurosporine was used a positive control (low control, LC). Plates were incubated at 37 C for 0, 2, 4, 6, 8, 10 days. Every other day, medium was replenished with stimulus and diluted compounds.
At each CTG time point, plate was removed from incubator and Cell-Titer Glo 2.0 reagent was added to each well according to manufacturer's (Promega) protocol and detected on an Envision. The inhibition activity was calculated following the formula below:
% Inhibition=100×(ReadoutHC−ReadoutSample)/(ReadoutHC−ReadoutLC)
PBMCs were exposed to Compound 1 at concentrations ranging from 0.01 μM to 10 μM for 10 days. […]

| Structure (SMILES) | induction of AKR1A1 circRNA (Alu-mediated) [1] | induction of BRIP1 circRNA (Alu-mediated) [1] | induction of DKC1 circRNA (Alu-mediated) [1] | induction of SETD3 circRNA (non-Alu-mediated) [1] | proliferation of PBMCs [2] |
| --- | --- | --- | --- | --- | --- |
| CS(=O)(=O)Nc1cccc(NC(=O)c2cc(Br)cs2)c1 [Compound 7, 4-bromo-N-(3-methanesulfonamidophenyl)thiophene-2-carboxamide] | induced | induced | induced | no induction of SETD3 cirRNA was observed |  |
| CN[C@@H]1C[C@H]2O[C@@](C)([C@@H]1OC)n1c3ccccc3c3c4c(c5c6ccccc6n2c5c31)C(=O)NC4 [staustoporine, staurosporine, reference compound] |  |  |  |  | inhibited proliferation of PBMCs |
